This assay deals with APSR (Mycobacterium tuberculosis, UniProt P9WIK3). Kind of assay: standard radioactive assay measuring APSR reduction of 35S-labeled APS substrate. It is filed as biochemical, M. tuberculosis. As to conditions: for inhibition at 100 µM: read-out: inhibition of APSR activity, tested at 100 μM.
APSR, sequence (P9WIK3 whole entry): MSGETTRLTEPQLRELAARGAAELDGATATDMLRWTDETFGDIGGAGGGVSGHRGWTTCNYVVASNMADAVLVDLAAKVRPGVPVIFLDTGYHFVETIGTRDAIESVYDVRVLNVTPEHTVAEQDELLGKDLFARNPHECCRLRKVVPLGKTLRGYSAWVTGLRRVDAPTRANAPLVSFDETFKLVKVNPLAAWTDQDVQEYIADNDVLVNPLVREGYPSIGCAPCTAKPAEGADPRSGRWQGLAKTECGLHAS

Consider `O=C1c2ccccc2-c2ccc([N+](=O)[O-])cc21` [2-nitro-9-fluorenone], for which the “activity against APSR (in words)” value is recorded as “neither 9-fluorenone nor 2-nitro-9-fluorenone, which are closely related to 133896, exhibited significant activity”.
On the same count and under the same terms, for `O=C1c2ccccc2-c2ccccc21` [9-fluorenone] the value was “neither 9-fluorenone nor 2-nitro-9-fluorenone, which are closely related to 133896, exhibited significant activity”.
A word on the inhibition: it is the relative decrease from the control value, in per cent. For the compound `O=C1c2ccccc2-c2cc([N+](=O)[O-])c([N+](=O)[O-])cc21` [NSC 133896], the inhibition at 100 µM is more than 50%.
On the same count and under the same terms, for `O=C(O)CCc1nnc2c3ccccc3c3ccccc3c2n1` [NSC 327704] the value was more than 50%.

Values taken from PMC2639213 (Journal of medicinal chemistry, 2008).
